“Also recorded” adds a separate entry of the source. Like-named read-outs stand apart in the source and are kept apart here.
Assays:
human HDAC6 [1] = molecular target: T1, human HDAC6 (Homo sapiens, UniProt Q9UBN7); assay: HDAC6 inhibitor enzymatic assay, % inhibition at fixed concentration; conditions: read-out: %inhibition of HDACs at 10µM of test compound HDAC6
T1 sequence (Q9UBN7 1-1215): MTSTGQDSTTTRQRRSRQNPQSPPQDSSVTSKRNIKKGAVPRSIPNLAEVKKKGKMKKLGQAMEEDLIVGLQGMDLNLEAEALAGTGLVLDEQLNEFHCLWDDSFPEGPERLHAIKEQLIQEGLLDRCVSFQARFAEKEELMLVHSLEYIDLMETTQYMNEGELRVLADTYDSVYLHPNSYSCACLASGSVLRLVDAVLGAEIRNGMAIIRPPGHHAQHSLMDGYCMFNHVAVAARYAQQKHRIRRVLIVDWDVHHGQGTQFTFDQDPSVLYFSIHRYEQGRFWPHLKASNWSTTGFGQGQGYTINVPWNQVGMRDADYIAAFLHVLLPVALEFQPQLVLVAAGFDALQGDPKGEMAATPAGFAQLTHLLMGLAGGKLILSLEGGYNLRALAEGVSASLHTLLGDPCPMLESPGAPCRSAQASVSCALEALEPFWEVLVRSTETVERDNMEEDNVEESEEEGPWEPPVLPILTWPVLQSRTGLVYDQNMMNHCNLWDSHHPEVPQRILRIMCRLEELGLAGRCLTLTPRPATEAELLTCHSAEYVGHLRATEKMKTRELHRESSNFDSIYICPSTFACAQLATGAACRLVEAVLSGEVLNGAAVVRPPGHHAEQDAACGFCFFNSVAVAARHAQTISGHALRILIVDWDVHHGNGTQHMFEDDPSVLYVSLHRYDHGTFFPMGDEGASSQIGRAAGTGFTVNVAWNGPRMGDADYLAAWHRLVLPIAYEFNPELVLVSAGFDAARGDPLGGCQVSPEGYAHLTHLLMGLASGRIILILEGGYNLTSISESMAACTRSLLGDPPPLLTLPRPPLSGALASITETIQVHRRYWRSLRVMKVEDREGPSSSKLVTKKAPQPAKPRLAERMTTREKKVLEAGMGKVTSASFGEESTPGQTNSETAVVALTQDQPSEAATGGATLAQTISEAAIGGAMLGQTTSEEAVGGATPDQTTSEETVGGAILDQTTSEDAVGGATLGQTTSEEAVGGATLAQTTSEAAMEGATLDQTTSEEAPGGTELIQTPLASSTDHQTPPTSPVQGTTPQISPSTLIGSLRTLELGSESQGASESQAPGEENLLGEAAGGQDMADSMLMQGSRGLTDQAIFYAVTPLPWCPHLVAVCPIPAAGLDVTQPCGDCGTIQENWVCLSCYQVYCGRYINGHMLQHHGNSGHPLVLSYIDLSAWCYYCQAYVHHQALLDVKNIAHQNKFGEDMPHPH

human HDAC5 = human HDAC5 (Homo sapiens, UniProt Q9UQL6); assay: HDAC5 inhibitor enzymatic assay, % inhibition at fixed concentration; conditions: read-out: %inhibition of HDACs at 10µM of test compound HDAC5
Chain of human HDAC5 (Q9UQL6 656-1122 limits assumed): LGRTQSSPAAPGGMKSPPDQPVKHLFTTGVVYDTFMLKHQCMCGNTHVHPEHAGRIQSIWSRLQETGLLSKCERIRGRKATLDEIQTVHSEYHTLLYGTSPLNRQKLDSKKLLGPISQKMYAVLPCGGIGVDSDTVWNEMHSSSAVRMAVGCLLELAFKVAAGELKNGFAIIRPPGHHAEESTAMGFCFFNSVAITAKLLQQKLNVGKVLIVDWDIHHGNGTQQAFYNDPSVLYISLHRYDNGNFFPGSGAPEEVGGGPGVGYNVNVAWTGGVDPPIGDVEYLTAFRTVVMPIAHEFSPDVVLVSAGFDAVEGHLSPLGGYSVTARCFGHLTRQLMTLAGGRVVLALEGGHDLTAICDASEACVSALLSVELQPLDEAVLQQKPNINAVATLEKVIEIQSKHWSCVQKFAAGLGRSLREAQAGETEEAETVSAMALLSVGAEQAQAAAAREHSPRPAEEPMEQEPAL

[2] = system: acetylated α-tubulin in CCHE-45 cells; assay: Western blot analysis of acetylated α-tubulin in CCHE-45 cells; assay type: cell-based; conditions: 100 µM, 24 h
Experimental: CCHE-45 cells were treated with 100 µM of test compound for 24 h. HL60 cell line (a kind gift from Professor Azza Kamel from the National Cancer Institute, Cairo University); and is cultured in RPMI-1640 (Lonza, BE-12-702F) supplemented with 10% Fetal Bovine Serum (FBS, Gibco, 12483–020) and 100 U/ml penicillin and 100 µg/ml streptomycin (Lonza, DE17-602F), has also been treated with different concentrations of 10a in twofold serial dilutions for 24 h. Proteins were extracted from CCHE-45 cells using RIPA Lysis and Extraction Buffer (ThermoScientific, cat. No: 89901) containing 100x Halt Protease and […] Inhibitor Cocktail (ThermoScientific, cat. No. 78444). Followed by protein quantification using Bradford Reagent (Pierce Coomassie Plus (Bradford) Assay Reagent) (ThermoScientific, cat. No. 23238). A total of 50 µg proteins were loaded on a 10% SDS page using 30% Acrylamide/Bisacrylamide 19:1(Serva, cat. No. 10679.01) then transferred by semidry transfer method using Bio-Rad Trans-Blot Turbo transfer system on PVDF Transfer Membrane (ThermoScientific, cat. No. 88518). The membranes were incubated overnight at 4 °C in the primary antibodies Mouse monoclonal Anti-Beta Actin antibody (1:100, abcam, ab8224) and Mouse monoclonal Anti-acetylated α Tubulin (1:200, Santa Cruz Biotechnology, sc-23950). […]

human HDAC6 [3] = molecular target: T1, human HDAC6; assay: IC50 of the test inhibitor against HDAC6 (10-dose enzymatic assay); assay type: biochemical; set-up: purchased BPS Bioscience 50006; conditions: for activity at 0.0003 µM: 0.0003 µM compound; for activity at 0.001 µM: 0.001 µM compound; for activity at 0.003 µM: 0.003 µM compound; for activity at 0.01 µM: 0.01 µM compound; for activity at 0.03 µM: 0.03 µM compound; for activity at 0.1 µM: 0.1 µM compound; for activity at 0.3 µM: 0.3 µM compound; for activity at 1 µM: 1 µM compound; for activity at 3 µM: 3 µM compound; for activity at 10 µM: 10 µM compound
[4] = Repeat1, read-out: HDAC6 % Activity Repeat1
[5] = Repeat2, read-out: HDAC6 % Activity Repeat2

inhibition at 10 µM (human HDAC6 [1]): 92%
inhibition at 10 µM (human HDAC5): 4%
activity at 0.0003 µM (human HDAC6 [3]; [4]): 100%
activity at 0.0003 µM (human HDAC6 [3]; [5]): 99%
activity at 0.001 µM (human HDAC6 [3]; [4]): 98%
activity at 0.001 µM (human HDAC6 [3]; [5]): 100%
activity at 0.003 µM (human HDAC6 [3]; [4]): 100%
activity at 0.003 µM (human HDAC6 [3]; [5]): 95%
activity at 0.01 µM (human HDAC6 [3]; [4]): 95%
activity at 0.01 µM (human HDAC6 [3]; [5]): 100%
activity at 0.03 µM (human HDAC6 [3]; [4]): 93%
activity at 0.03 µM (human HDAC6 [3]; [5]): 94%
activity at 0.1 µM (human HDAC6 [3]; [4]): 86%
activity at 0.1 µM (human HDAC6 [3]; [5]): 82%
activity at 0.3 µM (human HDAC6 [3]; [4]): 61%
activity at 0.3 µM (human HDAC6 [3]; [5]): 63%
activity at 1 µM (human HDAC6 [3]; [4]): 33%
activity at 1 µM (human HDAC6 [3]; [5]): 33%
activity at 3 µM (human HDAC6 [3]; [4]): 13%
activity at 3 µM (human HDAC6 [3]; [5]): 14%
activity at 10 µM (human HDAC6 [3]; [4]): 5%
activity at 10 µM (human HDAC6 [3]; [5]): 5%
SMILES: O=C(CCCSc1nc2ccccc2n1Cc1ccccc1)NO [Compound 10a, 4-((1-benzyl-1H-benzo[d]imidazol-2-yl)thio)-N-hydroxybutanamide]
acetylated α-tubulin level (Western blot) [2]: significant increase; also recorded: upregulated acetylated α-tubulin

— publication PMC6522981, “Structure-based design generated novel hydroxamic acid based preferential HDAC6 lead inhibitor with on-target cytotoxic activity against primary choroid plexus carcinoma” (Journal of Enzyme Inhibition and Medicinal Chemistry, 2019)
